The source of these data is PubChem BioAssay AID248 (DTP/NCI, 2004).

In the test the test system is L1210 leukemia ip in BDF1 mice, survival T/C. As to the kind of experiment: NCI In Vivo Anticancer Drug Screen. Data for tumor model L1210 Leukemia (intraperitoneal) in B6D2F1 (BDF1) mice. Particulars: endpoint: mean survival time, higher = longer survival. In a few lines: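 Tumor cells were implanted, animals were treated, and survival was followed. The result divides the treated measurement by the vehicle-control measurement.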

Where [1] appears, read: dose: 100.0 mg/kg/injection, schedule: Q04DX002 (ip), vehicle: Klucel (hydroxypropylcellulose) (HPC).
Where [2] appears, read: dose: 200.0 mg/kg/injection, schedule: Q04DX002 (ip), vehicle: Klucel (hydroxypropylcellulose) (HPC).
The mark [3] stands for this setting: dose: 100.0 mg/kg/injection, schedule: Q04DX003 (ip), vehicle: saline with Tween-80.
Where [4] appears, read: dose: 200.0 mg/kg/injection, schedule: Q04DX003 (ip), vehicle: saline with Tween-80.
The mark [5] stands for this setting: dose: 400.0 mg/kg/injection, schedule: Q04DX003 (ip), vehicle: saline with Tween-80.
Setting [6] is: dose: 100.0 mg/kg/injection, schedule: Q01DX001 (ip), vehicle: carboxymethylcellulose (CMC).
Setting [7] is: dose: 200.0 mg/kg/injection, schedule: Q01DX001 (ip), vehicle: carboxymethylcellulose (CMC).
Setting [8] is: dose: 400.0 mg/kg/injection, schedule: Q01DX001 (ip), vehicle: carboxymethylcellulose (CMC).
Where [9] appears, read: dose: 75.0 mg/kg/injection, schedule: Q01DX001 (ip), vehicle: saline.
The mark [10] stands for this setting: dose: 100.0 mg/kg/injection, schedule: Q01DX001 (ip), vehicle: saline.
Where [11] appears, read: dose: 200.0 mg/kg/injection, schedule: Q01DX001 (ip), vehicle: saline.
[12] abbreviates: dose: 400.0 mg/kg/injection, schedule: Q01DX001 (ip), vehicle: saline.
Setting [13] is: dose: 100.0 mg/kg/injection, schedule: Q01DX009 (ip), vehicle: Klucel (hydroxypropylcellulose) (HPC).
Where [14] appears, read: dose: 100.0 mg/kg/injection, schedule: Q01DX009 (ip), vehicle: saline with Tween-80.
The mark [15] stands for this setting: dose: 200.0 mg/kg/injection, schedule: Q01DX009 (ip), vehicle: saline with Tween-80.
Where [16] appears, read: dose: 400.0 mg/kg/injection, schedule: Q01DX009 (ip), vehicle: saline with Tween-80.
Where [17] appears, read: dose: 50.0 mg/kg/injection, schedule: Q01DX001 (ip), vehicle: saline.

Structures are written as SMILES. “And” between values parts separate entries of the source, which are not always exact repeats. Identical values can stand only once. Inconclusive results and toxic doses are left out.

As to `CCOC(=O)Nc1c(O)cccc1N1CCOCC1`, the T/C is 101 % of control under setting [1]; 101 % of control under setting [2]; 104 % of control (dose: 400.0 mg/kg/injection, schedule: Q04DX002 (ip), vehicle: Klucel (hydroxypropylcellulose) (HPC)).

In the case of `c1ccc(CNc2nn[nH]n2)cc1`, the T/C by setting is: under setting [3], 96 % of control; under setting [4], 96 % of control; under setting [5], 94 % of control.

For the compound `CCN(CC)CCNc1nc(N)c(C#N)c(C#N)c1C#N`, the T/C under setting [6] is 96 % of control, the T/C under setting [7] was 94 % of control and the T/C under setting [8] is 96 % of control.

`CC1(C)N=C(N)N=C(N)N1c1ccccc1F`: the T/C runs as follows: (dose: 25.0 mg/kg/injection, schedule: Q01DX009 (ip), vehicle: saline) 93 % of control; (dose: 38.0 mg/kg/injection, schedule: Q01DX001 (ip), vehicle: saline) 101 % of control; (dose: 50.0 mg/kg/injection, schedule: Q01DX009 (ip), vehicle: saline) 91 % of control; under setting [9], 101 % of control; (dose: 75.0 mg/kg/injection, schedule: Q01DX009 (ip), vehicle: saline) 110 % of control.

For the compound `Cc1ccc(CC(O)(CC(O)(c2ccccc2)c2ccccc2)c2ccccc2)cc1C` (configuration not stated), the T/C runs as follows: under setting [9], 92 % of control; (dose: 75.0 mg/kg/injection, schedule: Q04DX003 (ip), vehicle: saline) 94 % of control; (dose: 150.0 mg/kg/injection, schedule: Q01DX001 (ip), vehicle: saline) 92 % of control; (dose: 150.0 mg/kg/injection, schedule: Q04DX003 (ip), vehicle: saline) 91 % of control; (dose: 300.0 mg/kg/injection, schedule: Q01DX001 (ip), vehicle: saline) 90 % of control; (dose: 300.0 mg/kg/injection, schedule: Q04DX003 (ip), vehicle: saline) 94 % of control.

As to `CC(=O)NC1CCCCC1c1ccc(C2CCCCC2NC(C)=O)cc1` (configuration not stated), the T/C was 98 % of control under setting [10] and 98 % of control under setting [11].

In the case of `COc1ccc(C(=S)N2CCN(c3ccc(Cl)cc3)CC2)cc1`, the T/C is 95 % of control under setting [10], 95 % of control under setting [11] and 95 % of control under setting [12].

Consider `O=C(O)c1ccc(Cl)cc1Nc1ccc(F)cc1`, for which the T/C by setting is: (dose: 100.0 mg/kg/injection, schedule: Q01DX001 (ip), vehicle: Klucel (hydroxypropylcellulose) (HPC)) 100 % of control; under setting [13], 96 % of control; (dose: 200.0 mg/kg/injection, schedule: Q01DX001 (ip), vehicle: Klucel (hydroxypropylcellulose) (HPC)) 100 % of control; (dose: 400.0 mg/kg/injection, schedule: Q01DX001 (ip), vehicle: Klucel (hydroxypropylcellulose) (HPC)) 100 % of control.

Consider `[N-]=[N+]=NC(c1ccccc1)S(=O)c1ccccc1` (configuration not stated), for which the T/C under setting [1] was 90 % of control and the T/C under setting [2] is 108 % of control.

`O=C(O)C(Br)C(Br)C(=O)Nc1ccc(Cl)c(Cl)c1` (configuration not stated): the T/C by setting is: under setting [14], 101 % of control; under setting [15], 104 % of control; under setting [16], 93 % of control.

Turning to `O=NN(CCF)C(=O)NCCCl`, the T/C by setting is: (dose: 9.0 mg/kg/injection, schedule: Q01DX001 (ip), vehicle: Klucel (hydroxypropylcellulose) (HPC)) 185 % of control and 220 % of control; (dose: 14.0 mg/kg/injection, schedule: Q01DX001 (ip), vehicle: Klucel (hydroxypropylcellulose) (HPC)) 352 % of control and 355 % of control; (dose: 21.0 mg/kg/injection, schedule: Q01DX001 (ip), vehicle: Klucel (hydroxypropylcellulose) (HPC)) 419 % of control and 564 % of control; (dose: 32.0 mg/kg/injection, schedule: Q01DX001 (ip), vehicle: Klucel (hydroxypropylcellulose) (HPC)) 746 % of control.

Regarding `CN1C(=O)CSC1=S`, the T/C (dose: 25.0 mg/kg/injection, schedule: Q01DX009 (ip), vehicle: Klucel (hydroxypropylcellulose) (HPC)) was 90 % of control; the T/C (dose: 50.0 mg/kg/injection, schedule: Q01DX009 (ip), vehicle: Klucel (hydroxypropylcellulose) (HPC)) was 87 % of control; the T/C under setting [13] is 93 % of control.

Regarding `OCP(CO)CO.[Cl][Hg][Cl]`, the T/C (dose: 30.0 mg/kg/injection, schedule: Q01DX001 (ip), vehicle: saline) was 119 % of control.

Take `Clc1ccc(-c2nn[nH]n2)cc1`: the T/C under setting [1] is 96 % of control and the T/C under setting [2] is 93 % of control.

Regarding `COc1ccc(C(=O)C(C)CN2CCCCC2)cc1` (configuration not stated), the T/C runs as follows: under setting [10], 96 % of control; under setting [11], 107 % of control.

Regarding `CCN(CC)Cc1c(C)[nH]c2c(OC)cccc2c1=O`, the T/C was 103 % of control (dose: 25.0 mg/kg/injection, schedule: Q04DX003 (ip), vehicle: water); 97 % of control (dose: 50.0 mg/kg/injection, schedule: Q04DX003 (ip), vehicle: water); 101 % of control (dose: 100.0 mg/kg/injection, schedule: Q01DX009 (ip), vehicle: water); 100 % of control and 102 % of control (dose: 100.0 mg/kg/injection, schedule: Q04DX003 (ip), vehicle: water).

As to `CCCCC(=O)N/N=C/c1ccc(I)cc1`, the T/C was 91 % of control under setting [6], 87 % of control under setting [7] and 91 % of control under setting [8].

With `O=[N+]([O-])c1ccc(-c2ccccc2)cc1`, the T/C reads like this: under setting [10], 102 % of control; under setting [11], 105 % of control; under setting [12], 105 % of control.

`O=C(CN1CCOCC1)N1CCN(C(=O)CN2CCOCC2)CC1`: the T/C (dose: 50.0 mg/kg/injection, schedule: Q01DX001 (ip), vehicle: carboxymethylcellulose (CMC)) was 92 % of control; the T/C under setting [6] is 97 % of control; the T/C under setting [7] was 95 % of control; the T/C under setting [8] is 101 % of control.

As for `Cc1ccc2cccnc2c1`, the T/C reads like this: under setting [6], 93 % of control; under setting [7], 93 % of control; under setting [8], 86 % of control.

In the case of `CC(C)(C)C1CCC(NN)CC1` (configuration not stated), the T/C is 101 % of control (dose: 0.78 mg/kg/injection, schedule: Q01DX009 (ip), vehicle: saline); 100 % of control (dose: 1.56 mg/kg/injection, schedule: Q01DX009 (ip), vehicle: saline); 101 % of control (dose: 3.12 mg/kg/injection, schedule: Q01DX009 (ip), vehicle: saline); 95 % of control (dose: 6.25 mg/kg/injection, schedule: Q01DX009 (ip), vehicle: saline); 98 % of control (dose: 12.5 mg/kg/injection, schedule: Q04DX003 (ip), vehicle: saline); 98 % of control (dose: 25.0 mg/kg/injection, schedule: Q04DX003 (ip), vehicle: saline). In addition, the T/C under setting [17] was 92 % of control.

With `CC(=O)NCCc1ccc(S(=O)(=O)F)cc1`, the T/C is 91 % of control under setting [14] and 102 % of control under setting [15].

In the case of `CC1(C)c2ccccc2C(C)(C)[N+]1(C)C`, under “dose: 100.0 mg/kg/injection, schedule: Q01DX001 (ip), vehicle: other”, the T/C was 101 % of control.

As to `CCOC(=O)c1ccc(NCc2cnc(N)nc2N)cc1`, the T/C under setting [10] is 97 % of control, the T/C under setting [11] is 90 % of control and the T/C under setting [12] is 90 % of control.

As for `O=C(O)c1nccc2c([N+](=O)[O-])cccc12`, the T/C (dose: 100.0 mg/kg/injection, schedule: Q04DX003 (ip), vehicle: saline) is 97 % of control; the T/C (dose: 200.0 mg/kg/injection, schedule: Q04DX003 (ip), vehicle: saline) is 97 % of control; the T/C (dose: 400.0 mg/kg/injection, schedule: Q04DX003 (ip), vehicle: saline) was 92 % of control.

Consider `CCOC1=CCCCC1`, for which the T/C runs as follows: under setting [17], 101 % of control; under setting [10], 103 % of control; under setting [11], 103 % of control; under setting [12], 101 % of control.

As for `CCc1c(C(OC)OC)[nH]c(=S)[nH]c1=O`, the T/C runs as follows: under setting [14], 94 % of control; under setting [3], 100 % of control; under setting [15], 100 % of control; under setting [4], 100 % of control; under setting [16], 94 % of control; under setting [5], 105 % of control.

Consider `CC(=O)OCC1OC(N=C=S)C(OC(C)=O)C(OC(C)=O)C1OC(C)=O` (configuration not stated), for which the T/C is 97 % of control (dose: 12.5 mg/kg/injection, schedule: Q01DX009 (ip), vehicle: saline with Tween-80); 100 % of control (dose: 25.0 mg/kg/injection, schedule: Q01DX009 (ip), vehicle: saline with Tween-80); 93 % of control (dose: 50.0 mg/kg/injection, schedule: Q01DX009 (ip), vehicle: saline with Tween-80).
